Assays:
[1] = tested on: Staph. aureus clinical isolates; assay: Growth curves (optical density) of clinical isolates in presence of daptomycin; assay type: cell-based
Procedure: Growth curves of multiple clinical isolates of the representative bacteria S. aureus as illustrated in FIGS. 4A through 4D were determined using a BioTek Synergy HI plate reader (available from BioTek Instruments (of Agilent Technologies), Winooski, Vermont). S. aureus isolates growth rates were tested in the presence and absence of the representative antibiotic daptomycin. Differential growth rates were identifiable after two hours of the sixteen-hour growth curve. Two-hour differentiation was confirmed by Newton-Raphson root finding method.
(§1) Sample preparation. Clinical isolates of Staph. aureus were obtained from the Urisch laboratory at the UPMC Department of Othopaedic Surgery. Isolates were de-identified according to IRB protocol and were stored in 50% glycerol solution at −80° C. Isolates were streaked for single colonies on mannitol salt agar (MSA) plates and cultures were grown in mannitol salt broth, shaking at 36.5° C. Overnight cultures were then diluted into fresh media and regrown for 2 hours to ensure that bacteria were entering exponential growth phase. Exponentially growing cultures were mixed with media or daptomycin in a 1:1 ratio. Daptomycin was added to 0.5 ml of culture to a final concentration of 0.25 μg/ml. Identical cultures were used in all experiments using PAFC and BioTek HI plate reader. For photoacoustic testing, bacteriophage SP1 was added to a concentration of 1000 phage per bacterial cell. Growth curves were performed for 16 hours with measurements taken once every minute.
Treated and control cultures were placed in a round bottom 96 well culture plate (Falcon microtest 96 well plate 35077, ThermoFisher, Waltham, Massachusetts) and were placed into the BioTek HI plate reader. Optical density (OD) measurements were taken every minute at 600 nm wavelength. Between measurements, the plate was shaken at 100 rpm and maintained at 36.5+C allowing for bacterial growth. The two-hour time point was determined to be sufficient to differentiate the growth rates. Additionally, multiple replicates of each bacterial strain were grown at 36.5° C. in the BioTek HI plate reader and 100 μL was removed and plated on MSA plates every 10 minutes. Growth curves were made directly from these titers for each strain to give a quantifiable number of bacterial cells for each OD.

MRSA = details: cited from earlier work
[2] = tested on: Staph. aureus clinical isolates; assay: PAFC cell count of clinical isolates in presence of daptomycin, dyed SP1 phage label; assay type: cell-based
Procedure: All strains were tested in the presence and absence of daptomycin. In a number of studies hereof, cultures were diluted into fresh media and regrown for 2 hours in the presence and absence of […] of daptomycin. Each sample was then incubated at room temperature for 10 minutes with multiple dyed phage per bacterial cell. Incubated samples were then processed through PAFC system 100 and number of detected cells recorded. Isolates were tested in triplicated for both the plate reader and PAFC system.
as §1
Photoacoustic Flow Cytometry. […] Laser beam energy was maintained and measured between 1.9 and 2.1/mJ for all PAFC experiments. […] The laser beam was assumed Gaussian in shape and fluence was calculated to be 0.014 mJ/cm^2 and detection volume was determined to be 0.04 μL.
All strains were tested in the presence and absence of daptomycin. […] Incubated samples were then processed through the PAFC system and number of detected cells recorded. Isolates were tested in triplicate for both the plate reader and PAFC system.

VRSA = details: cited from earlier work
[3] = tested on: S. aureus clinical isolates; assay: Photoacoustic flow cytometry (PAFC) detections of clinical isolates incubated with oxacillin; assay type: cell-based, Staphylococcus aureus; details: for Treated Detections: oxacillin 1 μmg/ml, 2 hours
Procedure: In a representative study, total of thirteen samples were tested for the mecA gene using PCR, thus determining their methicillin resistance before photoacoustic testing. Streaks of each S. aureus strain were grown on mannitol salt agar plates. Single colonies from each streak plate were used to regrow strains in mannitol salt broth for 2 hours in a shaking water bath at 36.5 C. That period ensured cells were growing and entering exponential growth phase. Oxacillin was added at a final concentration of 1 μmg/ml to half of each culture and grown for an additional 2 hours. Before processing through PAFC system, 100 μl from each culture was removed and used for growth analysis in an HI plate reader (available from Biotek of Winooski, Vermont). Growth curves were made for each culture by taking the optical density of each treated and untreated culture every minute over a 16-hour period. As described above, it was determined that two hours of antibiotic treatment was sufficient to determine differential growth rates from prior experimentation. Prior to performing photoacoustic testing, treated and untreated samples were incubated side-by-side for two hours. Photoacoustic testing of treated and untreated samples for each isolate were alternated, so that both samples were tested within twenty minutes to allow for similar growth times. Thus, total bacteria number could be compared properly.
To interpret the photoacoustic data provided by the flow cytometer, k-means clustering was used to guide the differentiation between methicillin resistant and susceptible samples. […] K-means, like other clustering methods, takes data points in a space of one or more dimensions and determines natural groupings of those points by proximity. Given a number of clusters, k, the algorithm separates all points into that number of groups. In a representative study, there was an interest in identifying only resistant and susceptible groups. Thus, k=2 was chosen.
The ratio of treated detection numbers over untreated numbers was determined, resulting in 13 numbers which were approximately in the range of 0 to 1. Lower numbers indicate that oxacillin was effective in decreasing the S. aureus population. However, there was no ad hoc threshold for determining antibiotic resistance. K-means with two clusters was applied to the data set using the MATLAB programming language (available from Math Works of Natick, Massachusetts). The MATLAB function, kmeans, uses Lloyd's algorithm. For simplicity, Euclidean distance was used for measuring and establishing iterative clusters.
Because the sample size was relatively small and the distribution was not obviously Gaussian, a nonparametric test was performed to compare the means of the bacterial counts before and after treatment with oxacillin. Using a Wilcoxon matched pairs signed rank test, a p-value of 0.0007 was calculated.
Photoacoustic Flow Cytometry. A 1000 μm optical fiber with numerical aperture of 0.39 (Thorlabs, Newton, New Jersey) was used to deliver laser light at 532 nm with a 5 ns pulse duration from a Nd:YAG laser (Litron Nano, Boseman, Montana). Laser beam energy was maintained and measured between 1.9 and 2.1/mJ for all PAFC experiments. The optical fiber was placed 5 mm away from a quartz tube (Quartz 10 QZ, Charles Supper, Natick, Massachusetts) with 10 μm thick walls. Samples were pumped through the quartz tube inside a 3D printed flow chamber. The laser beam was assumed Gaussian in shape and fluence was calculated to be 0.014 mJ/cm^2 and detection volume was determined to be 0.04 μL.

Question: Which results are given for `CCCCCCCCCC(=O)N[C@@H](Cc1c[nH]c2ccccc12)C(=O)N[C@H](CC(N)=O)C(=O)N[C@@H](CC(=O)O)C(=O)N[C@@H]1C(=O)NCC(=O)N[C@@H](CCCN)C(=O)N[C@@H](CC(=O)O)C(=O)N[C@H](C)C(=O)N[C@@H](CC(=O)O)C(=O)NCC(=O)N[C@H](CO)C(=O)N[C@@H]([C@H](C)CC(=O)O)C(=O)N[C@@H](CC(=O)c2ccccc2N)C(=O)O[C@@H]1C` [daptomycin]?
Answer: growth (optical density) treated vs untreated ([1]; heterogeneous strain A, FIG. 4C): delay of exponential growth; growth (optical density) treated vs untreated ([1]; heterogeneous strain B, FIG. 4D): no delay in initial growth is observed but severe retardation of growth starting at 1.5 hours; growth (optical density) treated vs untreated ([1]; resistant clinical isolate, FIG. 4B, 2 h and 16 h): no delay or inhibition of growth; growth (optical density) treated vs untreated ([1]; susceptible clinical isolate, FIG. 4A, 2 h and 16 h): complete inhibition of growth; MIC (MRSA): 0.25 to 1 µg/mL; cells detected by PAFC, treated vs untreated ([2]; heterogeneous resistant strains): intermediary number of cells detected; cells detected by PAFC, treated vs untreated ([2]; homogeneous resistant strains): identical or nearly identical numbers of cells; cell count via photoacoustic detection ([2]; susceptible clinical isolate, FIG. 4A, two-hour timepoint): zero detection; MIC (VRSA): > 4 µg/mL

Question: With `Cc1onc(-c2ccccc2)c1C(=O)N[C@@H]1C(=O)N2[C@@H]1SC(C)(C)[C@@H]2C(=O)O` [oxacillin] as the molecule, how does the “Treated Detections” value ([3]; isolate B1899 (mecA Yes)) read?
Answer: The value was 404.

Question: What about the “Treated Detections” value ([3]; isolate K3237 (mecA No)) of the same molecule?
Answer: Its value is 44.

Question: And the “Treated Detections” value ([3]; isolate K3251 (mecA No))?
Answer: Its value is 7.

Question: What about the “Treated Detections” value ([3]; isolate K3255 (mecA No)) of the same molecule?
Answer: Its value is 53.

Question: What about the “Treated Detections” value ([3]; isolate K3261 (mecA Yes)) of the same molecule?
Answer: The value was 135.

Question: What about the “Treated Detections” value ([3]; isolate K3262 (mecA No)) of the same molecule?
Answer: Its value is 10.

Question: What about the “Treated Detections” value ([3]; isolate K3266 (mecA No)) of the same molecule?
Answer: The value was 18.

Question: What about the “Treated Detections” value ([3]; isolate K3268 (mecA Yes)) of the same molecule?
Answer: The value was 110.

Question: What about the “Treated Detections” value ([3]; isolate K3270 (mecA Yes)) of the same molecule?
Answer: The value was 134.

Question: What about the “Treated Detections” value ([3]; isolate K3279 (mecA Yes)) of the same molecule?
Answer: Its value is 175.

Question: And the “Treated Detections” value ([3]; isolate K3280 (mecA Yes))?
Answer: The value was 179.

Question: And the “Treated Detections” value ([3]; isolate K3282 (mecA Yes))?
Answer: The value was 689.

Question: What about the “Treated Detections” value ([3]; isolate K3287 (mecA No)) of the same molecule?
Answer: The value was 2.

Question: What about the “mean ratio of treated to untreated” value ([3]; second subgroup, markedly different growth) of the same molecule?
Answer: Its value is 0.10.

Question: What about the “mean ratio of treated to untreated” value ([3]; subgroup with similar growth rates (isolates with mecA gene)) of the same molecule?
Answer: The value was 0.87.

Source: US20250002969A1, “DISCRIMINATION OF ANTIBIOTIC RESISTANT AND SENSITIVE SAMPLES” (priority 2021, published 2025)
